# Reference: US20080153794A1, “Medicaments and methods for wound healing” (RENOVO LIMITED, priority 2006, published 2008)
# How the values were obtained:
# [1] = tested on: full thickness excisional wounds (punch biopsies); assay: Rat full thickness excisional wound model (study 3): re-epithelialisation at test concentrations, injection 20 minutes before wounding; type: in vivo, adult male Sprague-Dawley rats; settings: intradermal 20 minutes before wounding, day 3, five rats
# Excerpt: Animals were killed, and their wounds harvested, three days after wounding. The wounds were excised and treated for histology. […] All histological assessments of early wound healing events were made using preserved 5 micron-thickness wound sections taken from the widest part of each excised biopsy site. Sections were stained with Haematoxylin and Eosin to aid visualisation of structural features, and measurements made using image analysis software. The distance traveled by the epithelium is derived from two histological measurements: the freehand total wound diameter and the freehand non-epithelialised wound diameter. The non-epithelialised diameter is subtracted from the total wound diameter, to determine the distance which the new epithelium has covered since the time of wounding. Percentage re-epithelialisation for the new epithelium was calculated as a proportion of the total wound diameter. The average percentage re-epithelialisation value was calculated from the wounds of the […] within each treatment group. […] 100 μl of the medicament to be tested was administered by intradermal injection at sites on the dorsal surface of experimental rats, 20 minutes prior to formation of a full thickness punch biopsy at the injected site. One injection and excisional wound was made per animal, and five adult male Sprague-Dawley rats used per treatment group. Acceleration of wound healing achieved using the test concentrations of the medicaments of the invention was investigated using the protocols set out under 1.1.4 above.
# partial thickness wounds = assay: Pig partial thickness wound healing model (model of split thickness skin graft donor sites); type: in vivo, male Large White pigs; settings: 100 μl per cm^2 intradermal, five days after wounding, four pigs
# Protocol: Test medicaments were administered by intradermal injection to provide 100 μl of medicament per cm^2 to sites on experimental pigs where wounds were to be formed. Thus a total volume of 625 μl of the test medicament was administered per wound site. After administration of the medicaments 2.5 cm by 2.5 cm (6.25 cm^2) partial thickness wounds were made using a 25 mm dermatome (Nouvag) at a depth setting of 0.55 mm. A single wound was treated per animal, and each treatment group comprised four male Large White pigs. Animals were killed, and their wounds harvested, five days after wounding. The wounds were excised and treated for histology. […] After being allowed fixed for 48 hours wounded tissue was bisected into four even sections. All bisected sections were processed to wax and embedded into individual wax blocks. Tissue was sectioned through to the end of the block where at every 250 μm, a single slide containing a 5 μm thick section was prepared. […] For each section, the freehand epithelialised and freehand non-epithelialised distances were measured using image analysis; freehand epithelialised distance as a proportion of the sum of the epithelialised and non-epithelialised distances was calculated to produce a percentage re-epithelialisation value. Average percentage re-epithelialisation values were calculated per wound and per treatment group.
# [2] = tested on: full thickness cutaneous excisional wounds (punch biopsies); assay: Human 3 mm punch biopsy wounds: re-epithelialisation; type: in vivo, humans; settings: single 100 μl intradermal dose 10-30 minutes before wounding, day 3, 44 wounds
# Protocol: Medicaments of the invention were prepared using the constituents described above. […] 44 healthy subjects were recruited to the study, of whom, 40 were healthy males (aged 18-75 years) and 4 were post-menopausal females (aged 53-69 years). The average age of subjects recruited to this study was 42 years. The post-menopausal status of female subjects was confirmed by quantification of serum levels of oestradiol and follicle stimulating hormone (FSH). Serum levels of oestradiol were required to be […], and follicle stimulating hormone levels >31 IU/L. Each subject had four wounds treated with active drug, one corresponding to each of four concentrations of the medicaments produced. The test medicaments were each administered intradermally as a single dose at a volume of 100 μl (sufficient to treat 1 cm^2 of skin) per wound site (the upper, inner aspect of each arm), 10-30 minutes before wounding. Subjects received 3 mm punch biopsies at the sites where the medicaments had been administered. After wounding, all sites received moist wound healing dressings (Standard Care). Biopsy sites were excised, using a 5 mm punch biopsy, three days after wounding. […] Percentage re-epithelialisation for the new epithelium was calculated as a proportion of the total wound diameter. The average percentage re-epithelialisation value was calculated from the 44 wounds of each treatment group.
# [3] = 0.1 μg 17β-oestradiol/100 μl of medicament (0.0001% w/v)
structure (smiles),measurement,setting,value
C[C@]12CC[C@@H]3c4ccc(O)cc4CC[C@H]3[C@@H]1CC[C@@H]2O [17β-oestradiol],re-epithelialisation,[1]; 0.001 μg 17β-oestradiol/100 μl of medicament (0.000001% w/v),23.02%
same,re-epithelialisation,[1]; 0.01 μg 17β-oestradiol/100 μl of medicament (0.00001% w/v),29.03%
same,re-epithelialisation,[1]; [3],29.95%
same,re-epithelialisation,[1]; 1 μg 17β-oestradiol/100 μl of medicament (0.001% w/v),14.63%
same,re-epithelialisation,[1]; 10 μg 17β-oestradiol/100 μl of medicament (0.01% w/v),10.30%
same,re-epithelialisation,partial thickness wounds; 0.1 μg 17β-oestradiol/100 μl of medicament,98.15%
same,re-epithelialisation,partial thickness wounds; 0.2 μg 17β-oestradiol/100 μl of medicament,98.56%
same,acceleration of re-epithelialisation (in words),[2]; [3],particularly preferable ability to induce acceleration of re-epithelialisation
same,acceleration of re-epithelialisation (in words),[2]; 0.2 μg 17β-oestradiol/100 μl of medicament (0.0002% w/v),particularly preferable ability to induce acceleration of re-epithelialisation
